According to US4659730A, “Aromatase inhibiting imidazole derivatives” (Eli Lilly and Company, priority 1984, dated 1987):
Structures can show the parent of a compound that is named as a salt. Where two headings read alike, the source gives them in different places.

Legend:
aromatase = target: T1, aromatase (Rattus norvegicus, UniProt P22443); experiment: biochemical
T1 sequence (P22443 1-508): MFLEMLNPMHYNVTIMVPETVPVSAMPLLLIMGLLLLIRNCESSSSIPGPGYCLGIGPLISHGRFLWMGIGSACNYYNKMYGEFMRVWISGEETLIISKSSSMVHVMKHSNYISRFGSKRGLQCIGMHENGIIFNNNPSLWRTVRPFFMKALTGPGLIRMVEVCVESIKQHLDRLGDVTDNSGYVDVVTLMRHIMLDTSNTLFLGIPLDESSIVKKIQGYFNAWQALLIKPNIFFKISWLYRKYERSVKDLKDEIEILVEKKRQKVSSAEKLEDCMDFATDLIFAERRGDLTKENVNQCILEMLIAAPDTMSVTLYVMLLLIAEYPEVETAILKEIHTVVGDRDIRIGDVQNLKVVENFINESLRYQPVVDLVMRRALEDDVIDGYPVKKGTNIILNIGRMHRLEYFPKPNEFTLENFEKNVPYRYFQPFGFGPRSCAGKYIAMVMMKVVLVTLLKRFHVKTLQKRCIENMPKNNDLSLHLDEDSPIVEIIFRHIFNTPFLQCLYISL
Method: In this test system, ovarian microsomes are obtained from rats treated with pregnant mares serum gonadotropin. Test compounds are added to reaction vials containing 0.1 μM 4-androstene-3,17-dione, 100,000 dpm 1,2[^3 H]-androstenedione, the microsomes and a NADPH generating system. The concentrations of the inhibitors tested ranged between 0.005 and 10 μM.

[1] = test system: aromatization (estrogen synthesis); experiment: Estrogen synthesis inhibition in rats (uterine weight and ovarian steroid levels); format: in vivo, rat (immature female Wistar); conditions: 7 days; for Mean Uterine Weight: testosterone propionate-treated rats; for Mean Steroid Concentration, estrone / Mean Steroid Concentration, estriol / Mean Steroid Concentration, estradiol: ovaries; for Mean Steroid Concentration, estrone: testosterone-treated control 0.19; for Mean Steroid Concentration, estriol: testosterone-treated control 0.53; for Mean Steroid Concentration, estradiol: testosterone-treated control 0.55
breast cancer = conditions: known aromatase inhibitors; Cancer Research, Vol. 42, Suppl. 8:3261s (1982); cited from earlier work
[2] = rat ovarian microsomes, substrate (androstenedione) concentration 0.1 μM
[3] = 30 ppm in feed (approx. 3 mg/kg/day)
[4] = 300 ppm in feed (approx. 30 mg/kg/day)

Structure (SMILES): c1ccc2c(c1)CCCC2n1ccnc1 (stereo not drawn) [nitrate]
- EC50 (aromatase): 520 nM

Structure (SMILES): Clc1cccc2c1CCC2n1ccnc1 (stereo not drawn) [1-(4-chloro-2,3-dihydro-1H--inden-1-yl)-1H--imidazole nitrate]
- EC50 (aromatase; [2]): 680 nM

Structure (SMILES): Clc1cc2c(cc1Cl)C(n1ccnc1)CC2.O=[N+]([O-])O (stereo not drawn)
- Mean Uterine Weight ([1]; 30 ppm in feed (approx. 3 mg/kg/day), 4 animals, testosterone-treated control 140.8): 152.5 mg
- Mean Uterine Weight ([1]; 300 ppm in feed (approx. 30 mg/kg/day), 5 animals, significantly different from testosterone-treated control (140.8), p < 0.05): 103.2 mg
- Mean Steroid Concentration, estrone [1, 3]: 0.21 femtomoles per milligram of protein
- Mean Steroid Concentration, estriol [1, 3]: 0.46 femtomoles per milligram of protein
- Mean Steroid Concentration, estradiol [1, 3]: 0.71 femtomoles per milligram of protein
- Mean Steroid Concentration, estrone [1, 4]: 0.17 femtomoles per milligram of protein
- Mean Steroid Concentration, estriol [1, 4]: 0.49 femtomoles per milligram of protein
- Mean Steroid Concentration, estradiol [1, 4]: 0.35 femtomoles per milligram of protein

Structure (SMILES): Clc1ccc2c(c1)C(n1ccnc1)CCC2 (stereo not drawn) [1-(7-chloro-1,2,3,4-tetrahydro-1-naphthalenyl)-1H--imidazole nitrate]
- EC50 (aromatase; [2]): 100 nM

Structure (SMILES): c1ccc2c(c1)SCCC2n1ccnc1 (stereo not drawn) [nitrate]
- EC50 (aromatase): 1020 nM

Structure (SMILES): c1ccc2c(c1)OCCC2n1ccnc1 (stereo not drawn) [1-(3,4-dihydro-2H-1-benzopyran-4-yl)-1H-imidazole hydrochloride]
- EC50 (aromatase; [2]): 2800 nM

Structure (SMILES): COc1ccc2c(c1)C(n1ccnc1)CCC2 (stereo not drawn) [nitrate]
- EC50 (aromatase): 450 nM

Structure (SMILES): Clc1cc(Cl)c2c(c1)C(n1ccnc1)CC2 (stereo not drawn) [nitrate]
- EC50 (aromatase): 115 nM

Structure (SMILES): COc1cccc2c1CCCC2n1ccnc1 (stereo not drawn) [nitrate]
- EC50 (aromatase): 250 nM

Structure (SMILES): c1ccc2c(c1)CCC2n1ccnc1 (stereo not drawn) [nitrate]
- EC50 (aromatase): 810 nM

Structure (SMILES): COc1ccc(OC)c2c1CCC2n1ccnc1 (stereo not drawn) [nitrate]
- EC50 (aromatase): 870 nM

Structure (SMILES): C[C@]12C=CC(=O)C=C1CC[C@@H]1[C@@H]2CC[C@]2(C)OC(=O)CC[C@@H]12 [testolactone]
- effect in treatment of breast cancer (breast cancer): beneficial effect in treatment of breast cancer

Structure (SMILES): Clc1cc2c(cc1Cl)C(n1ccnc1)CC2.O=[N+]([O-])O (stereo not drawn) [nitrate]
- EC50 (aromatase): 78 nM

Structure (SMILES): CCC1(c2ccc(N)cc2)CCC(=O)NC1=O (stereo not drawn) [aminoglutethimide]
- effect in treatment of breast cancer (breast cancer): beneficial effect in treatment of breast cancer
